Measured values: patent publication US20240317708A1, “INHIBITORS OF TRANSGLUTAMINASES” (ZEDIRA GMBH, priority 2021, published 2024)

Assays:
[1] = Caco-2 permeability assay (CacoReady kit); format: in vitro ADME; conditions: human
In short: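 Papp values come from Caco-2 barrier studies intended to predict oral bioavailability; the manufacturer's procedure for the ready-made kit was followed.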

[2] = Log D shake flask method (octanol / PBS pH 7.4, HPLC); format: physicochemical; conditions: octanol/phosphate-buffered saline (PBS); octanol / PBS pH 7.4, shake flask
Description: In order to classify the inventive compounds according to their lipophilicity, Log D values (distribution coefficient) were determined by means of the well-established shake flask method, measuring the partition of a compound between an octanol and phosphate-buffered saline (PBS, pH 7.4) by HPLC.

[3] = target: T1, recombinant human transglutaminase 2 (Homo sapiens, UniProt P21980); assay: Transglutaminase assay (dansylcadaverine incorporation into dimethylcasein, DCC-assay); format: biochemical; conditions: recombinant human TG2 10 nM, dansylcadaverine/dimethylcasein, 37° C.
T1 construct: purchased Zedira T022
T1 sequence (P21980 1-687): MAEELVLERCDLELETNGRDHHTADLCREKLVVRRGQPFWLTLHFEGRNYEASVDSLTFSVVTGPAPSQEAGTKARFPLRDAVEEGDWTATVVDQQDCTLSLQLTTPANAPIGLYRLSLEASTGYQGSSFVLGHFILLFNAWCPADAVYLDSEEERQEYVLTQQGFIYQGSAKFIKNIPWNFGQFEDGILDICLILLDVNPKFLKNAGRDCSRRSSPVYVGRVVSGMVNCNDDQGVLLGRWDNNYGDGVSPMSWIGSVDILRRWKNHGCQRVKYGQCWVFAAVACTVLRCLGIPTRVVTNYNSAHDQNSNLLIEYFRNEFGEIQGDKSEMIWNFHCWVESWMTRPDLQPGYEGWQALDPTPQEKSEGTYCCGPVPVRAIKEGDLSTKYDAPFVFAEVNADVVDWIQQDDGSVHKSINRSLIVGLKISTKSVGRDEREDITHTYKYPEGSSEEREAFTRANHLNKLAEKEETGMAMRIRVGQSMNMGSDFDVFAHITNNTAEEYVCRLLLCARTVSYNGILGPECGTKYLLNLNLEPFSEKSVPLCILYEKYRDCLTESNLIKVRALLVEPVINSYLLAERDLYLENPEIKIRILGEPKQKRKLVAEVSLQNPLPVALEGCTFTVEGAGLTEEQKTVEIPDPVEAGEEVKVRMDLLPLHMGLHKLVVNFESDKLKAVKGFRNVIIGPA
In short: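 IC50 derived from fluorescence slope between 20 and 30 min (λex 330 nm, λem 500 nm, 37 °C), expressed relative to a 2% DMSO control. Reaction: 10 nM recombinant human TG2, 4 μM dimethylcasein, 16.7 μM dansylcadaverine, 10 mM CaCl2 and glutathione, pH 8.0.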

| SMILES | Papp [1] [×10⁻⁶ cm/s] | logD [2] | IC50 [3] [nM] |
| --- | --- | --- | --- |
| Cc1cc(C(=O)N[C@@H](CC/C=C/C(=O)Nc2ccccc2)C(=O)Nc2cccn(CC(=O)NC34CC(C3)C4)c2=O)c(C)o1 [III-153, (S,E)-N7-(1-(2-(bicyclo[1.1.1]pentan-1-ylamino)-2-oxoethyl)-2-oxo-1,2-dihydropyridin-3-yl)-6-(2,5-dimethylfuran-3-carboxamido)-N1-phenylhept-2-enediamide] | 1 to 10 | 1 to 3 | 25 to 250 |
| COC(=O)/C=C/CC[C@H](NC(=O)c1c[nH]cn1)C(=O)Nc1cccn(CC(=O)NC2C3CC4CC(C3)CC2C4)c1=O (stereo partly drawn) [III-28, (S,E)-methyl 6-(1H-imidazole-4-carboxamido)-7-(1-(2-(2-adamantylamino)-2-oxoethyl)-2-oxo-1,2-dihydropyridin-3-ylamino)-7-oxohept-2-enoate] | < 1 | 3 to 5 | 250 to 1500 |
| COC(=O)/C=C/CC[C@H](NC(=O)c1ccnn1C)C(=O)Nc1cccn(CC(=O)N[C@@H]2C[C@H]3CC[C@@H]2C3)c1=O [III-111, (S,E)-methyl 7-(1-(2-((1R,2R,4S)-bicyclo[2.2.1]heptan-2-ylamino)-2-oxoethyl)-2-oxo-1,2-dihydropyridin-3-ylamino)-6-(1-methyl-1H-pyrazole-5-carboxamido)-7-oxohept-2-enoate] | < 1 | 1 to 3 | < 25 |
| COC(=O)/C=C/CC[C@H](NC(=O)c1cncn1C)C(=O)Nc1cccn(CC(=O)N[C@@H]2C[C@H]3CC[C@@H]2C3)c1=O [III-62, (S,E)-methyl 7-(1-(2-((1R,2R,4S)-bicyclo[2.2.1]heptan-2-ylamino)-2-oxoethyl)-2-oxo-1,2-dihydropyridin-3-ylamino)-6-(1-methyl-1H-imidazole-5-carboxamido)-7-oxohept-2-enoate] | < 1 | 1 to 3 | < 25 |
| COC(=O)/C=C/CC[C@H](NC(=O)c1ccncc1)C(=O)Nc1cccn(CC(=O)NC2C3CC4CC(C3)CC2C4)c1=O (stereo partly drawn) [III-84, (S,E)-methyl 6-(isonicotinamido)-7-(1-(2-(2-adamantylamino)-2-oxoethyl)-2-oxo-1,2-dihydropyridin-3-ylamino)-7-oxohept-2-enoate] | < 1 | 3 to 5 | < 25 |
| COC(=O)/C=C/CC[C@H](NC(=O)c1sc(C(F)(F)F)nc1C)C(=O)Nc1cccn(CC(=O)NC2C3CC4CC(C3)CC2C4)c1=O (stereo partly drawn) [III-14, (S,E)-methyl 7-(1-(2-(2-adamantylamino)-2-oxoethyl)-2-oxo-1,2-dihydropyridin-3-ylamino)-6-(4-methyl-2-(trifluoromethyl)thiazole-5-carboxamido)-7-oxohept-2-enoate] | 1 to 10 | 3 to 5 | < 25 |
| COC(=O)/C=C/CC[C@H](NC(=O)c1snnc1CO)C(=O)Nc1cccn(CC(=O)NC2C3CC4CC(C3)CC2C4)c1=O (stereo partly drawn) [III-175, (S,E)-methyl 6-(4-(hydroxymethyl)-1,2,3-thiadiazole-5-carboxamido)-7-(1-(2-(2-adamantylamino)-2-oxoethyl)-2-oxo-1,2-dihydropyridin-3-ylamino)-7-oxohept-2-enoate] | < 1 | 1 to 3 | 250 to 1500 |
| COC(=O)/C=C/CC[C@H](NC(=O)c1snnc1C)C(=O)Nc1cccn(CC(=O)N[C@@H]2C[C@@H]3CC[C@H]2C3)c1=O [III-115, (S,E)-methyl 7-(1-(2-((1S,2R,4R)-bicyclo[2.2.1]heptan-2-ylamino)-2-oxoethyl)-2-oxo-1,2-dihydropyridin-3-ylamino)-6-(4-methyl-1,2,3-thiadiazole-5-carboxamido)-7-oxohept-2-enoate] | < 1 | 1 to 3 | < 25 |
| COC(=O)/C=C/CC[C@H](NC(=O)c1cnnn1C)C(=O)Nc1cccn(CC(=O)NC2C3CC4CC(C3)CC2C4)c1=O (stereo partly drawn) [III-22, (S,E)-methyl 7-(1-(2-(2-adamantylamino)-2-oxoethyl)-2-oxo-1,2-dihydropyridin-3-ylamino)-6-(1-methyl-1H-1,2,3-triazole-5-carboxamido)-7-oxohept-2-enoate] | 1 to 10 | 1 to 3 | < 25 |
| O=C(/C=C/CC[C@H](NC(=O)c1nc(Cl)sc1Cl)C(=O)Nc1cccn(CC(=O)NC23CC(C2)C3)c1=O)NCc1ccccc1 [III-154, (S,E)-N1-benzyl-N7-(1-(2-(bicyclo[1.1.1]pentan-1-ylamino)-2-oxoethyl)-2-oxo-1,2-dihydropyridin-3-yl)-6-(2,5-dichlorothiazole-4-carboxamido)hept-2-enediamide] | 1 to 10 | 1 to 3 | 250 to 1500 |
| COC(=O)/C=C/CC[C@H](NC(=O)c1oc2ccccc2c1C)C(=O)Nc1cccn(CC(=O)N[C@H]2C[C@H]3CC[C@]2(C)C3(C)C)c1=O [III-61, (S,E)-methyl 6-(3-methylbenzofuran-2-carboxamido)-7-oxo-7-(2-oxo-1-(2-oxo-2-((1R,2S,4R)-1,7,7-trimethylbicyclo[2.2.1]heptan-2-ylamino)ethyl)-1,2-dihydropyridin-3-ylamino)hept-2-enoate] | 1 to 10 | 3 to 5 | 25 to 250 |
| COC(=O)/C=C/CC[C@H](NC(=O)c1cc(Cl)sc1Cl)C(=O)Nc1cccn(CC(=O)NC2C3CC4CC(C3)CC2C4)c1=O (stereo partly drawn) [III-13, (S,E)-methyl 6-(2,5-dichlorothiophene-3-carboxamido)-7-(1-(2-(2-adamantylamino)-2-oxoethyl)-2-oxo-1,2-dihydropyridin-3-ylamino)-7-oxohept-2-enoate] | 1 to 10 | 3 to 5 | < 25 |
| COC(=O)/C=C/CC[C@H](NC(=O)c1ccnn1C)C(=O)Nc1cccn(CC(=O)NC23CC4(C)CC(C)(CC(C)(C4)C2)C3)c1=O [III-109, (S,E)-methyl 7-(1-(2-(3,5,7-trimethyl-1-adamantylamino)-2-oxoethyl)-2-oxo-1,2-dihydropyridin-3-ylamino)-6-(1-methyl-1H-pyrazole-5-carboxamido)-7-oxohept-2-enoate] | < 1 | 3 to 5 | < 25 |
| COC(=O)/C=C/CC[C@H](NC(=O)c1oc2ccccc2c1C)C(=O)Nc1cccn(CC2C3CC4CC(C3)CC2C4)c1=O (stereo partly drawn) [III-82, (S,E)-methyl 7-(1-(2-adamantylmethyl)-2-oxo-1,2-dihydropyridin-3-ylamino)-6-(3-methylbenzofuran-2-carboxamido)-7-oxohept-2-enoate] | 1 to 10 | 3 to 5 | 250 to 1500 |
| CCN(CC)C(=O)/C=C/CC[C@H](NC(=O)[C@@H]1CN2CCN1CC2)C(=O)Nc1cccn(CC(=O)NC23CC(C2)C3)c1=O [III-139, (S,E)-N7-(1-(2-(bicyclo[1.1.1]pentan-1-ylamino)-2-oxoethyl)-2-oxo-1,2-dihydropyridin-3-yl)-6-((S)-1,4-diazabicyclo[2.2.2]octane-2-carboxamido)-N1,N1-diethylhept-2-enediamide] | < 1 | < 1 | 250 to 1500 |
| COC(=O)/C=C/CC[C@H](NC(=O)c1ncns1)C(=O)Nc1cccn(CC(=O)NC23CC(C2)C3)c1=O [III-170, (S,E)-methyl 7-(1-(2-(bicyclo[1.1.1]pentan-1-ylamino)-2-oxoethyl)-2-oxo-1,2-dihydropyridin-3-ylamino)-7-oxo-6-(1,2,4-thiadiazole-5-carboxamido)hept-2-enoate] | < 1 | < 1 | 25 to 250 |
| COC(=O)/C=C/CC[C@H](NC(=O)c1cc2c(F)c(F)ccc2[nH]1)C(=O)Nc1cccn(CC(=O)NC2C3CC4CC(C3)CC2C4)c1=O (stereo partly drawn) [III-9, (S,E)-methyl 6-(4,5-difluoro-1H-indole-2-carboxamido)-7-(1-(2-(2-adamantylamino)-2-oxoethyl)-2-oxo-1,2-dihydropyridin-3-ylamino)-7-oxohept-2-enoate] | < 1 | 3 to 5 | < 25 |
| COC(=O)/C=C/CC[C@H](NC(=O)c1oc2ccccc2c1C)C(=O)Nc1cccn(CC(=O)N[C@@H]2C[C@@H]3CC[C@H]2C3)c1=O [III-59, (S,E)-methyl 7-(1-(2-((1 S,2R,4R)-bicyclo[2.2.1]heptan-2-ylamino)-2-oxoethyl)-2-oxo-1,2-dihydropyridin-3-ylamino)-6-(3-methylbenzofuran-2-carboxamido)-7-oxohept-2-enoate] | 1 to 10 | 3 to 5 | < 25 |
